# In patent publication US10420731B1, “Method of synthesizing lignin-based nanocompositions” (KING SAUD UNIVERSITY, priority 2019, dated 2019):
# Columns and labels:
# Caco-2 cell monolayer = conditions: in-vitro Caco-2 model system, previously known; cited from earlier work
# Caco-2 cells = assay: MTT cell viability assay; assay type: cell-based, human; conditions: CUR 50 μM and 80 μM, 24 h, MTT (FIG. 9)
# Experimental: Differentiated Caco-2 cells (ATCC, Rockville, Md., USA) were maintained in DMEM (4.5 g/L glucose) medium supplemented with 20% FBS (HyClone; Thermo Scientific, Waltham, Mass., USA), 1% non-essential amino acids, 1% L-glutamine, 1% streptomycin (100 μg/ml) and penicillin (100 IU/ml). The growth medium was changed every day in the first two weeks followed by three times a week.
# Caco-2 cell line was transferred into 96-well plates, at a density of 5×10^4 cells per well. After cell adhesion, the culture media was removed and the cells were incubated with 250 μL of culture media containing a concentration range from 10 μM to 300 μM of CUR as free, CUR loaded LG NPs and equivalent unloaded LG NPs.
# For free CUR, the samples were prepared from a stock solution in DMSO with appropriate dilutions to reach a maximum of 2% (v/v) of DMSO in each well. After a 24 h incubation period, the supernatant was removed and replaced by 100 μL of MTT solution (0.5 mg/ml) at (37 C°, 5% CO2) to allow MTT to be metabolized. […] Optical density was read at a wavelength of 570 nm using a microplate reader (ELX 800, Bio-Tek Instruments, Winooski, Vt., USA).
# The induced cytotoxicity was calculated by comparing the optical density (OD) values against control wells. […] All measurements were performed in triplicate and the means±standard deviation (SD) were calculated.
# [1] = prior study; cited from earlier work
# [2] = reported; cited from earlier work
compound,measurement,setting,value
COc1cc(/C=C/C(=O)CC(=O)/C=C/c2ccc(O)c(OC)c2)ccc1O [curcumin],Papp,Caco-2 cell monolayer,< 31.8 nm/s
same,Cell viability,Caco-2 cells,below 50%
same,Oral bioavailability,[1],1%
same,log P,[2],3.7
